For data set [1] the following is noted: cited from earlier work.
Data set [2] concerns individuals who have ingested 5-MeO-DMT. The conditions noted are these: cited from earlier work.
The conditions of data set [3]: hashed area of FIG. 2; cited from earlier work.
A further data set deals with humans. The conditions noted are these: 0.05 mg/kg to 0.4 mg/kg; bolus injections or prolonged infusions; only mild to moderate adverse effects; cited from earlier work.
Data set [4] is described as follows: Solubility in water (vessel cleaning note). The note with it: Stage 3 vessel cleaning information. In kind it is physicochemical.
The mark [5] stands for this setting: self-report, uncontrolled setting, Davis et al. 2018.

In the case of `COc1ccc2[nH]cc(CCN(C)C)c2c1` [Mixture 5-MeO-DMT, 5-methoxy-N, N-dimethyltryptamine], in data set [1] (rapidly metabolized, H-W. Shen et al. 2010), the Half-life was 12 to 19 min. Further, the Oral bioavailability result in data set [1] (without coadministration alongside a monoamine oxidase inhibitor) is on record as “not orally bioavailable”. The “Individuals with alcoholism or hazardous drinking reporting improvements” value in data set [2] (n=75 out of 113) was 66%. Also, in data set [2] (setting [5]), the “Participants indicating symptoms improved: anxiety” value is 69%, the “Participants indicating symptoms improved: depression” value is reported as 77% and the “Participants indicating symptoms improved: post-traumatic stress disorder” value is reported as 79%.
Consider `CN(C)CCc1c[nH]c2ccccc12` [DMT, N, N-dimethyltryptamine], for which the “Effect site concentrations experienced as full dissociation from the external world” value in data set [3] was above 60 ng/mL. Moreover, the Tolerability entry in the data set on humans is on record as “well-tolerated”.
With `CN(C)CCc1c[nH]c2ccccc12.O=C(O)/C=C/C(=O)O` [API, N,N-DMT fumarate], the Solubility in water entry in data set [4] is given as “API highly soluble”.

The record behind these values is US12649718B2, “Synthesis of n,n-dimethyltryptamine-type compounds, methods, and uses preliminary class 548” (CYBIN UK LTD, priority 2019, dated 2026).
